According to BindingDB's records for doi:10.1016/j.bmcl.2015.09.044 (Keio University, 2015):
Residues, ends and D or L forms follow the SMILES beside them.

Assay: Inhibition of M-CSF/sRANKL-induced mouse BMDM differentiation into osteoclast after 72 hrs by TRAP staining-based microscopic analysis

An IC50 of 0.78 µM was found for `C#CCCC/C=C(\C)C(=O)N(C)[C@H](C(=O)N(C)[C@H](C(=O)N(C)[C@H](C(=O)N(C)[C@H](C(=O)N1CCC[C@H]1C(=O)N1CCC[C@H]1C(=O)CC)C(C)C)C(C)C)[C@@H](C)CC)[C@@H](C)CC` (HELM PEPTIDE1{[C#CCCC/C=C(\C)C(=O)[*:2]].[meI].[meI].[meV].[meV].P.[CCC(=O)[C@@H]1CCCN1[*:1]]}$$$$V2.0) in this work.
